Source: ChEMBL document CHEMBL3779792, “Anti-proliferative evaluation of monoterpene derivatives against leukemia” (Eur J Med Chem, 2016)
pEC50: −log10 of the molar value.

System: not listed separately
Experiment: Cytotoxicity against human NALM6 cells after 72 hrs by Cell-Titer Glo assay
Type: functional, cell-based
Conditions: NALM-6, 72 h
Work on C=C[C@@](C)(/C=C/c1ccc(O)cc1)CCC1OC1(C)C (stereo partly drawn) yielded a pEC50 of under 4.36. With C=C[C@@](C)(/C=C/c1ccc(O)c(/C=C/C=C/c2ccccc2)c1)CCC=C(C)C the pEC50 was under 4.36. With COc1ccc(/C=C/[C@@](C)(/C=C/c2ccc(O)c(/C=C/C(C)=O)c2)CCC=C(C)C)cc1 the pEC50 was under 4.36. Work on C=C[C@@](C)(/C=C/c1ccc(O)cc1)CC/C=C(C)/C=C/C(=O)OCc1ccccc1 yielded a pEC50 of 4.44. In the case of C=C[C@@](C)(/C=C/c1ccc(O)c(CO)c1)CCC=C(C)C, the pEC50 was 4.79. C=C[C@@](C)(/C=C/c1ccc(OS(=O)(=O)C(F)(F)F)cc1)CCC=C(C)C showed a pEC50 of under 4.36. Work on C=C[C@@](C)(/C=C/c1ccc(O)c(/C=C/C(N)=O)c1)CCC=C(C)C yielded a pEC50 of under 4.36. In the case of C=C[C@@](C)(/C=C/c1ccc(O)c(/C=C/c2ccc(F)cc2)c1)CCC=C(C)C, the pEC50 was under 4.36. For C=C[C@@](C)(/C=C/c1ccc(O)c(/C=C/C(=O)O)c1)CCC=C(C)C, the pEC50 was under 4.36. C=C[C@@](C)(/C=C/c1ccc(O)c(/C=C/C(=O)OCc2ccccc2)c1)CCC=C(C)C showed a pEC50 of under 4.36. With C=C[C@](C)(CCCC(C)C)CCc1ccc(O)cc1 the pEC50 was 4.56. For COc1ccc(/C=C/[C@@](C)(/C=C/c2ccc(O)cc2)CCC=C(C)C)cc1, the pEC50 was under 4.36. Molecule C=C[C@@](C)(/C=C/c1ccc(O)cc1)CC/C=C/C#N has a pEC50 of under 4.36. With C=C[C@@](C)(/C=C/c1ccc(O)cc1)CC/C=C/C(=O)OCc1ccccc1 the pEC50 was under 4.36.

System: Jurkat
Experiment: Cytotoxicity against human Jurkat cells after 72 hrs by Cell-Titer Glo assay
Type: functional, cell-based
Conditions: not given
In the case of C=C[C@@](C)(/C=C/c1ccc(O)cc1)CCC1OC1(C)C (stereo partly drawn), the pEC50 was under 4.31. Molecule C=C[C@@](C)(/C=C/c1ccc(O)c(/C=C/C=C/c2ccccc2)c1)CCC=C(C)C has a pEC50 of under 4.31. Work on COc1ccc(/C=C/[C@@](C)(/C=C/c2ccc(O)c(/C=C/C(C)=O)c2)CCC=C(C)C)cc1 yielded a pEC50 of under 4.31. For C=C[C@@](C)(/C=C/c1ccc(O)cc1)CC/C=C(C)/C=C/C(=O)OCc1ccccc1, the pEC50 was under 4.31. C=C[C@@](C)(/C=C/c1ccc(O)c(CO)c1)CCC=C(C)C showed a pEC50 of under 4.31. In the case of C=C[C@@](C)(/C=C/c1ccc(OS(=O)(=O)C(F)(F)F)cc1)CCC=C(C)C, the pEC50 was under 4.31. With C=C[C@@](C)(/C=C/c1ccc(O)c(/C=C/C(N)=O)c1)CCC=C(C)C the pEC50 was under 4.31. Molecule C=C[C@@](C)(/C=C/c1ccc(O)c(/C=C/c2ccc(F)cc2)c1)CCC=C(C)C has a pEC50 of under 4.31. In the case of C=C[C@@](C)(/C=C/c1ccc(O)c(/C=C/C(=O)O)c1)CCC=C(C)C, the pEC50 was under 4.31. With C=C[C@@](C)(/C=C/c1ccc(O)c(/C=C/C(=O)OCc2ccccc2)c1)CCC=C(C)C the pEC50 was under 4.31. C=C[C@](C)(CCCC(C)C)CCc1ccc(O)cc1 gave a pEC50 of under 4.31. For COc1ccc(/C=C/[C@@](C)(/C=C/c2ccc(O)cc2)CCC=C(C)C)cc1, the pEC50 was under 4.31. With C=C[C@@](C)(/C=C/c1ccc(O)cc1)CC/C=C/C#N the pEC50 was under 4.31. C=C[C@@](C)(/C=C/c1ccc(O)cc1)CC/C=C/C(=O)OCc1ccccc1 showed a pEC50 of under 4.31.

System: Raji
Experiment: Cytotoxicity against human Raji cells after 72 hrs by Cell-Titer Glo assay
Type: functional, cell-based
Conditions: not given
With C=C[C@@](C)(/C=C/c1ccc(O)cc1)CCC1OC1(C)C (stereo partly drawn) the pEC50 was under 4.65. C=C[C@@](C)(/C=C/c1ccc(O)c(/C=C/C=C/c2ccccc2)c1)CCC=C(C)C gave a pEC50 of under 4.58. For COc1ccc(/C=C/[C@@](C)(/C=C/c2ccc(O)c(/C=C/C(C)=O)c2)CCC=C(C)C)cc1, the pEC50 was under 4.58. With C=C[C@@](C)(/C=C/c1ccc(O)cc1)CC/C=C(C)/C=C/C(=O)OCc1ccccc1 the pEC50 was under 4.58. C=C[C@@](C)(/C=C/c1ccc(O)c(CO)c1)CCC=C(C)C gave a pEC50 of under 4.58. C=C[C@@](C)(/C=C/c1ccc(OS(=O)(=O)C(F)(F)F)cc1)CCC=C(C)C showed a pEC50 of under 4.58. Molecule C=C[C@@](C)(/C=C/c1ccc(O)c(/C=C/C(N)=O)c1)CCC=C(C)C has a pEC50 of under 4.58. In the case of C=C[C@@](C)(/C=C/c1ccc(O)c(/C=C/c2ccc(F)cc2)c1)CCC=C(C)C, the pEC50 was under 4.58. In the case of C=C[C@@](C)(/C=C/c1ccc(O)c(/C=C/C(=O)O)c1)CCC=C(C)C, the pEC50 was under 4.58. C=C[C@@](C)(/C=C/c1ccc(O)c(/C=C/C(=O)OCc2ccccc2)c1)CCC=C(C)C showed a pEC50 of under 4.58. Molecule C=C[C@](C)(CCCC(C)C)CCc1ccc(O)cc1 has a pEC50 of under 4.58. COc1ccc(/C=C/[C@@](C)(/C=C/c2ccc(O)cc2)CCC=C(C)C)cc1 gave a pEC50 of under 4.58. C=C[C@@](C)(/C=C/c1ccc(O)cc1)CC/C=C/C#N showed a pEC50 of under 4.58. C=C[C@@](C)(/C=C/c1ccc(O)cc1)CC/C=C/C(=O)OCc1ccccc1 showed a pEC50 of under 4.58.

System: BJ
Experiment: Cytotoxicity against human BJ cells after 72 hrs by Cell-Titer Glo assay
Type: cell-based
Conditions: not given
Work on C=C[C@@](C)(/C=C/c1ccc(O)cc1)CCC1OC1(C)C (stereo partly drawn) yielded a pEC50 of under 4.44. Work on C=C[C@@](C)(/C=C/c1ccc(O)c(/C=C/C=C/c2ccccc2)c1)CCC=C(C)C yielded a pEC50 of under 4.44. COc1ccc(/C=C/[C@@](C)(/C=C/c2ccc(O)c(/C=C/C(C)=O)c2)CCC=C(C)C)cc1 gave a pEC50 of 4.91. C=C[C@@](C)(/C=C/c1ccc(O)cc1)CC/C=C(C)/C=C/C(=O)OCc1ccccc1 showed a pEC50 of under 4.44. With C=C[C@@](C)(/C=C/c1ccc(O)c(CO)c1)CCC=C(C)C the pEC50 was under 4.44. Work on C=C[C@@](C)(/C=C/c1ccc(OS(=O)(=O)C(F)(F)F)cc1)CCC=C(C)C yielded a pEC50 of under 4.44. C=C[C@@](C)(/C=C/c1ccc(O)c(/C=C/C(N)=O)c1)CCC=C(C)C gave a pEC50 of under 4.44. In the case of C=C[C@@](C)(/C=C/c1ccc(O)c(/C=C/c2ccc(F)cc2)c1)CCC=C(C)C, the pEC50 was under 4.44. Molecule C=C[C@@](C)(/C=C/c1ccc(O)c(/C=C/C(=O)O)c1)CCC=C(C)C has a pEC50 of under 4.44. Molecule C=C[C@@](C)(/C=C/c1ccc(O)c(/C=C/C(=O)OCc2ccccc2)c1)CCC=C(C)C has a pEC50 of under 4.44. Work on C=C[C@](C)(CCCC(C)C)CCc1ccc(O)cc1 yielded a pEC50 of under 4.44. Molecule COc1ccc(/C=C/[C@@](C)(/C=C/c2ccc(O)cc2)CCC=C(C)C)cc1 has a pEC50 of under 4.44. With C=C[C@@](C)(/C=C/c1ccc(O)cc1)CC/C=C/C#N the pEC50 was under 4.44. Molecule C=C[C@@](C)(/C=C/c1ccc(O)cc1)CC/C=C/C(=O)OCc1ccccc1 has a pEC50 of under 4.44.

System: HepG2
Experiment: Cytotoxicity against human HepG2 cells after 72 hrs by Cell-Titer Glo assay
Type: functional, cell-based
Conditions: HepG2, 72 h
Molecule C=C[C@@](C)(/C=C/c1ccc(O)cc1)CCC1OC1(C)C (stereo partly drawn) has a pEC50 of under 4.28. Molecule C=C[C@@](C)(/C=C/c1ccc(O)c(/C=C/C=C/c2ccccc2)c1)CCC=C(C)C has a pEC50 of under 4.28. Molecule COc1ccc(/C=C/[C@@](C)(/C=C/c2ccc(O)c(/C=C/C(C)=O)c2)CCC=C(C)C)cc1 has a pEC50 of under 4.28. Work on C=C[C@@](C)(/C=C/c1ccc(O)cc1)CC/C=C(C)/C=C/C(=O)OCc1ccccc1 yielded a pEC50 of under 4.28. With C=C[C@@](C)(/C=C/c1ccc(O)c(CO)c1)CCC=C(C)C the pEC50 was under 4.28. For C=C[C@@](C)(/C=C/c1ccc(OS(=O)(=O)C(F)(F)F)cc1)CCC=C(C)C, the pEC50 was under 4.28. Work on C=C[C@@](C)(/C=C/c1ccc(O)c(/C=C/C(N)=O)c1)CCC=C(C)C yielded a pEC50 of under 4.28. Molecule C=C[C@@](C)(/C=C/c1ccc(O)c(/C=C/c2ccc(F)cc2)c1)CCC=C(C)C has a pEC50 of under 4.28. C=C[C@@](C)(/C=C/c1ccc(O)c(/C=C/C(=O)O)c1)CCC=C(C)C showed a pEC50 of under 4.28. Work on C=C[C@@](C)(/C=C/c1ccc(O)c(/C=C/C(=O)OCc2ccccc2)c1)CCC=C(C)C yielded a pEC50 of under 4.28. Molecule C=C[C@](C)(CCCC(C)C)CCc1ccc(O)cc1 has a pEC50 of under 4.28. Work on COc1ccc(/C=C/[C@@](C)(/C=C/c2ccc(O)cc2)CCC=C(C)C)cc1 yielded a pEC50 of under 4.28. C=C[C@@](C)(/C=C/c1ccc(O)cc1)CC/C=C/C#N gave a pEC50 of under 4.28. C=C[C@@](C)(/C=C/c1ccc(O)cc1)CC/C=C/C(=O)OCc1ccccc1 showed a pEC50 of under 4.28.

System: HEK293
Experiment: Cytotoxicity against HEK293 cells after 72 hrs by Cell-Titer Glo assay
Type: cell-based
Conditions: Homo sapiens, HEK293, 72 h
For C=C[C@@](C)(/C=C/c1ccc(O)cc1)CCC1OC1(C)C (stereo partly drawn), the pEC50 was under 4.44. C=C[C@@](C)(/C=C/c1ccc(O)c(/C=C/C=C/c2ccccc2)c1)CCC=C(C)C showed a pEC50 of under 4.44. For COc1ccc(/C=C/[C@@](C)(/C=C/c2ccc(O)c(/C=C/C(C)=O)c2)CCC=C(C)C)cc1, the pEC50 was 4.84. C=C[C@@](C)(/C=C/c1ccc(O)cc1)CC/C=C(C)/C=C/C(=O)OCc1ccccc1 showed a pEC50 of under 4.44. In the case of C=C[C@@](C)(/C=C/c1ccc(O)c(CO)c1)CCC=C(C)C, the pEC50 was under 4.44. C=C[C@@](C)(/C=C/c1ccc(OS(=O)(=O)C(F)(F)F)cc1)CCC=C(C)C showed a pEC50 of under 4.44. Work on C=C[C@@](C)(/C=C/c1ccc(O)c(/C=C/C(N)=O)c1)CCC=C(C)C yielded a pEC50 of under 4.44. For C=C[C@@](C)(/C=C/c1ccc(O)c(/C=C/c2ccc(F)cc2)c1)CCC=C(C)C, the pEC50 was under 4.44. C=C[C@@](C)(/C=C/c1ccc(O)c(/C=C/C(=O)O)c1)CCC=C(C)C gave a pEC50 of under 4.44. With C=C[C@@](C)(/C=C/c1ccc(O)c(/C=C/C(=O)OCc2ccccc2)c1)CCC=C(C)C the pEC50 was under 4.44. C=C[C@](C)(CCCC(C)C)CCc1ccc(O)cc1 gave a pEC50 of under 4.44. COc1ccc(/C=C/[C@@](C)(/C=C/c2ccc(O)cc2)CCC=C(C)C)cc1 gave a pEC50 of under 4.44. In the case of C=C[C@@](C)(/C=C/c1ccc(O)cc1)CC/C=C/C#N, the pEC50 was under 4.44. C=C[C@@](C)(/C=C/c1ccc(O)cc1)CC/C=C/C(=O)OCc1ccccc1 gave a pEC50 of under 4.44.

System: not listed separately
Experiment: Cytotoxicity against human SEM cells after 72 hrs by Cell-Titer Glo assay
Type: functional, cell-based
Conditions: not given
C=C[C@@](C)(/C=C/c1ccc(O)cc1)CCC1OC1(C)C (stereo partly drawn) showed a pEC50 of under 4.44. For C=C[C@@](C)(/C=C/c1ccc(O)c(/C=C/C=C/c2ccccc2)c1)CCC=C(C)C, the pEC50 was under 4.82. Molecule COc1ccc(/C=C/[C@@](C)(/C=C/c2ccc(O)c(/C=C/C(C)=O)c2)CCC=C(C)C)cc1 has a pEC50 of 5.06. Molecule C=C[C@@](C)(/C=C/c1ccc(O)cc1)CC/C=C(C)/C=C/C(=O)OCc1ccccc1 has a pEC50 of under 4.44. With C=C[C@@](C)(/C=C/c1ccc(O)c(CO)c1)CCC=C(C)C the pEC50 was under 4.44. In the case of C=C[C@@](C)(/C=C/c1ccc(OS(=O)(=O)C(F)(F)F)cc1)CCC=C(C)C, the pEC50 was under 4.44. C=C[C@@](C)(/C=C/c1ccc(O)c(/C=C/C(N)=O)c1)CCC=C(C)C showed a pEC50 of under 4.44. With C=C[C@@](C)(/C=C/c1ccc(O)c(/C=C/c2ccc(F)cc2)c1)CCC=C(C)C the pEC50 was under 4.44. For C=C[C@@](C)(/C=C/c1ccc(O)c(/C=C/C(=O)O)c1)CCC=C(C)C, the pEC50 was under 4.44. Work on C=C[C@@](C)(/C=C/c1ccc(O)c(/C=C/C(=O)OCc2ccccc2)c1)CCC=C(C)C yielded a pEC50 of under 4.44. In the case of C=C[C@](C)(CCCC(C)C)CCc1ccc(O)cc1, the pEC50 was under 4.44. COc1ccc(/C=C/[C@@](C)(/C=C/c2ccc(O)cc2)CCC=C(C)C)cc1 showed a pEC50 of under 4.44. C=C[C@@](C)(/C=C/c1ccc(O)cc1)CC/C=C/C#N gave a pEC50 of under 4.44. With C=C[C@@](C)(/C=C/c1ccc(O)cc1)CC/C=C/C(=O)OCc1ccccc1 the pEC50 was under 4.44.
